Columns and labels:
hNaV1.3 = target: T1, hNaV1.3 (Homo sapiens, UniProt Q9NY46); assay: Voltage-dependent block (VDB) of hNaV1.3, QPatch whole-cell voltage-clamp in HEK-293 cells; format: cell-based; details: 8 s prepulse to -55 mV; at a given concentration (not given)
T1 construct: (Vanderbilt University, Nashville, Tenn.)
Procedure: (§1) Voltage-dependent block (VDB) of […] was determined by whole-cell voltage-clamp recordings of sodium current using a QPatch 16× automated electrophysiological system in HEK 293 cells overexpressing Nav 1.3 and Nav 1.7 sodium channels, respectively. VDB of peak current was measured using an 8 s conditioning prepulse (to -55 mV for NaV1.3 and to −60 mV for […]) followed by a test pulse (0 mV, 20 ms). Currents are normalized to the peak current recorded in the absence of drug and expressed as percent inhibition. […] Glucagon secretion in the cells was induced by the treatment with veratridine at 30 μM for 1 hour in Krebs-Ringer buffer containing 0.1% BSA. Percent inhibition of glucagon secretion by Na channel blockers was calculated from the reduction of veratridine-induced glucagon secretion in the absence of drug.
(Vanderbilt University, Nashville, Tenn.). The cells were continuously maintained in a humidified, 5% CO2 atmosphere at 37° C. in DMEM high glucose growth medium supplemented with 10% FBS, 2 mM L-glutamine, 100 U/mL penicillin, 100 μg/mL streptomycin, 1 mg/mL G418 and 3 μg/mL puromycin.
(§2) Whole-cell voltage-clamp recordings were used to measure the activity of test compounds against hNaV1.3 and hNaV1.7. Sodium currents were recorded at room temperature using a QPatch 16× automated electrophysiological system (Sophion Bioscience, Copenhagen, Denmark). Cells were washed with PBS and then incubated with Detachin for 2 minutes at room temperature. Cells were then resuspended in growth media, pelleted by centrifugation and resuspended in CHO-S-SFM II serum free media supplemented with 100 U/mL penicillin, 100 μg/mL streptomycin and 10 mM HEPES. The cells were allowed to recover for 30 min at room temperature with constant stirring and then loaded into the QPatch cell holder.
(§3) The cells were loaded into primed single hole (2 MΩ) large QPlates and the whole-cell configuration was established using the default protocol. Cells were allowed to stabilize for 10 min after establishment of the whole-cell configuration before current was measured. […] All currents are low-pass Bessel filtered at 5 kHz and digitized at 50 kHz.
(§4) Specific voltage-clamp protocols assessing voltage-dependent block (VDB, also termed state-dependent block) are used. VDB of peak current was measured following an 8 s conditioning prepulse (to -55 mV for NaV1.3 and to −60 mV for NaV1.7) followed by a test pulse to 0 mV (20 ms). An interpulse (−120 mV, 10 ms) was used to recover non-drug bound channels from fast inactivation. The prepulse potential was determined by the steady-state inactivation curves for NaV1.3 and NaV1.7. […] Multiple applications of drug were used to ensure complete solution exchange and the cells were allowed to stabilize in the drug containing solution for two minutes. Currents were normalized to the peak current recorded in the absence of drug and expressed as percent inhibition.

hNaV1.7 = hNaV1.7 (Homo sapiens, UniProt Q15858); assay: Voltage-dependent block (VDB) of hNaV1.7, QPatch whole-cell voltage-clamp in HEK-293 cells; format: cell-based; details: 8 s prepulse to −60 mV; at a given concentration (not given)
Procedure: as §1
The cells were continuously maintained in a humidified, 5% CO2 atmosphere at 37° C. in MEM growth medium supplemented with 10% FBS, 2 mM L-glutamine, 100 U/mL penicillin, 100 μg/mL streptomycin, 0.6 mg/mL G418 and 2 μg/mL blastocydin.
as §2, §3, §4

T1 sequence (Q9NY46 1-1951 isoform Q9NY46-4): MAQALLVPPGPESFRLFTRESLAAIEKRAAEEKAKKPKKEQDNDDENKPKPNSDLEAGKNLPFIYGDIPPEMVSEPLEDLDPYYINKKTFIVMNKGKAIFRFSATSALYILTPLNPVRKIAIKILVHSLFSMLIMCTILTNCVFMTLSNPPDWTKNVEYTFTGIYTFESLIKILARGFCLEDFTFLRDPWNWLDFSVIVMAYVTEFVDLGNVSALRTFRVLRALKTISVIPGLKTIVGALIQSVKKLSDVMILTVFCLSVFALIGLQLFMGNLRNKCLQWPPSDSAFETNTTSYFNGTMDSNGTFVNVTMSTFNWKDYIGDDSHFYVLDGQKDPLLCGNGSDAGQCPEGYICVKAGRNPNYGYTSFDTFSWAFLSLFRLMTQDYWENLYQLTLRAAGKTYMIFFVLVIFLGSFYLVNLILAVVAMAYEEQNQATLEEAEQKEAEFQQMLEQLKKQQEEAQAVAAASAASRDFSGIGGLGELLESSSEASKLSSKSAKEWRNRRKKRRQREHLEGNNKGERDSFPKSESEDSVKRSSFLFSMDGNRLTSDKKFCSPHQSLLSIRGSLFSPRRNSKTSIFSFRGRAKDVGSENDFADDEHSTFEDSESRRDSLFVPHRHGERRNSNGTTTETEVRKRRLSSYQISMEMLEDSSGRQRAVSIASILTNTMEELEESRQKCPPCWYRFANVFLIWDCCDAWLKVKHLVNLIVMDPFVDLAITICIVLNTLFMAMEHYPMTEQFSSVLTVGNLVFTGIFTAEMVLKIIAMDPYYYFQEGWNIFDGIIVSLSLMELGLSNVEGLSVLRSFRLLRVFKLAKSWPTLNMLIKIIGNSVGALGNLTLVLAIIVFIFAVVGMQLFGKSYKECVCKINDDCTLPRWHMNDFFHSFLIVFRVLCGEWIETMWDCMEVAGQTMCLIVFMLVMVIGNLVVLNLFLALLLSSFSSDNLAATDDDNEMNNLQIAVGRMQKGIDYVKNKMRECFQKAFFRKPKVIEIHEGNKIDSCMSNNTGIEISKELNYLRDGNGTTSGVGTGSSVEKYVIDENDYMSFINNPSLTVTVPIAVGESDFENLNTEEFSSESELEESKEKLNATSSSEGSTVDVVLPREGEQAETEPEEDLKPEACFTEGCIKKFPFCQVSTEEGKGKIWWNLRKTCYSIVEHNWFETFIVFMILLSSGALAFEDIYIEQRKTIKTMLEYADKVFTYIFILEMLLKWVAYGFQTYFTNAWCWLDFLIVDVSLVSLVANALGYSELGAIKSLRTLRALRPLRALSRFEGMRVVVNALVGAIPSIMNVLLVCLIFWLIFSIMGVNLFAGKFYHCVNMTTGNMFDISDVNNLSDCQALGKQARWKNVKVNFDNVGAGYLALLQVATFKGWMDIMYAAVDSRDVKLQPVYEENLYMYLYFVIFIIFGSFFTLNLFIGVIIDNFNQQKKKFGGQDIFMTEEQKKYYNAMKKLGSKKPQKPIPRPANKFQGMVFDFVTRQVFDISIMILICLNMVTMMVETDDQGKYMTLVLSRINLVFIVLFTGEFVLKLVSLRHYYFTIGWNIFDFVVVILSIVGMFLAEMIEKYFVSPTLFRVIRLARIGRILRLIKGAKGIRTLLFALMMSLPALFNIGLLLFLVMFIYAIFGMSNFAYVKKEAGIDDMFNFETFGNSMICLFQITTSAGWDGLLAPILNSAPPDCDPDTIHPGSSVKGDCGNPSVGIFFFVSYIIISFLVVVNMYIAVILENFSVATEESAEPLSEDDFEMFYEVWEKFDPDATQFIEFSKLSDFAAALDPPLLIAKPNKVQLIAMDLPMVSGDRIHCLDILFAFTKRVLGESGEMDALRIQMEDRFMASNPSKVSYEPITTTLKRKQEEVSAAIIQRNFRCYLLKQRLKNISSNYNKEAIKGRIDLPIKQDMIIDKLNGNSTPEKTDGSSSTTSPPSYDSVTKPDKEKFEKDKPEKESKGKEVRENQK
T1 sequence (Q07699 19-218 partner): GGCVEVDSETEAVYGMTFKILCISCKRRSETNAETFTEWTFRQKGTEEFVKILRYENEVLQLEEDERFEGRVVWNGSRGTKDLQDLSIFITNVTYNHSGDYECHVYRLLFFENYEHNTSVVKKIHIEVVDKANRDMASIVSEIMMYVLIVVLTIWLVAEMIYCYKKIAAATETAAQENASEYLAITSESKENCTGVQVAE
T1 sequence (O60939 30-215 partner): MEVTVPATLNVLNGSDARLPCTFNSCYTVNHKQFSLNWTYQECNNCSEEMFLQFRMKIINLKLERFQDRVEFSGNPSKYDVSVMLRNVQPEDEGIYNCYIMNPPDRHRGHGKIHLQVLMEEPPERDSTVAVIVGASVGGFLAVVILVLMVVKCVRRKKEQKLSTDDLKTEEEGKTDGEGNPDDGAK
hNaV1.7, sequence (Q15858 1-1977 isoform Q15858-3): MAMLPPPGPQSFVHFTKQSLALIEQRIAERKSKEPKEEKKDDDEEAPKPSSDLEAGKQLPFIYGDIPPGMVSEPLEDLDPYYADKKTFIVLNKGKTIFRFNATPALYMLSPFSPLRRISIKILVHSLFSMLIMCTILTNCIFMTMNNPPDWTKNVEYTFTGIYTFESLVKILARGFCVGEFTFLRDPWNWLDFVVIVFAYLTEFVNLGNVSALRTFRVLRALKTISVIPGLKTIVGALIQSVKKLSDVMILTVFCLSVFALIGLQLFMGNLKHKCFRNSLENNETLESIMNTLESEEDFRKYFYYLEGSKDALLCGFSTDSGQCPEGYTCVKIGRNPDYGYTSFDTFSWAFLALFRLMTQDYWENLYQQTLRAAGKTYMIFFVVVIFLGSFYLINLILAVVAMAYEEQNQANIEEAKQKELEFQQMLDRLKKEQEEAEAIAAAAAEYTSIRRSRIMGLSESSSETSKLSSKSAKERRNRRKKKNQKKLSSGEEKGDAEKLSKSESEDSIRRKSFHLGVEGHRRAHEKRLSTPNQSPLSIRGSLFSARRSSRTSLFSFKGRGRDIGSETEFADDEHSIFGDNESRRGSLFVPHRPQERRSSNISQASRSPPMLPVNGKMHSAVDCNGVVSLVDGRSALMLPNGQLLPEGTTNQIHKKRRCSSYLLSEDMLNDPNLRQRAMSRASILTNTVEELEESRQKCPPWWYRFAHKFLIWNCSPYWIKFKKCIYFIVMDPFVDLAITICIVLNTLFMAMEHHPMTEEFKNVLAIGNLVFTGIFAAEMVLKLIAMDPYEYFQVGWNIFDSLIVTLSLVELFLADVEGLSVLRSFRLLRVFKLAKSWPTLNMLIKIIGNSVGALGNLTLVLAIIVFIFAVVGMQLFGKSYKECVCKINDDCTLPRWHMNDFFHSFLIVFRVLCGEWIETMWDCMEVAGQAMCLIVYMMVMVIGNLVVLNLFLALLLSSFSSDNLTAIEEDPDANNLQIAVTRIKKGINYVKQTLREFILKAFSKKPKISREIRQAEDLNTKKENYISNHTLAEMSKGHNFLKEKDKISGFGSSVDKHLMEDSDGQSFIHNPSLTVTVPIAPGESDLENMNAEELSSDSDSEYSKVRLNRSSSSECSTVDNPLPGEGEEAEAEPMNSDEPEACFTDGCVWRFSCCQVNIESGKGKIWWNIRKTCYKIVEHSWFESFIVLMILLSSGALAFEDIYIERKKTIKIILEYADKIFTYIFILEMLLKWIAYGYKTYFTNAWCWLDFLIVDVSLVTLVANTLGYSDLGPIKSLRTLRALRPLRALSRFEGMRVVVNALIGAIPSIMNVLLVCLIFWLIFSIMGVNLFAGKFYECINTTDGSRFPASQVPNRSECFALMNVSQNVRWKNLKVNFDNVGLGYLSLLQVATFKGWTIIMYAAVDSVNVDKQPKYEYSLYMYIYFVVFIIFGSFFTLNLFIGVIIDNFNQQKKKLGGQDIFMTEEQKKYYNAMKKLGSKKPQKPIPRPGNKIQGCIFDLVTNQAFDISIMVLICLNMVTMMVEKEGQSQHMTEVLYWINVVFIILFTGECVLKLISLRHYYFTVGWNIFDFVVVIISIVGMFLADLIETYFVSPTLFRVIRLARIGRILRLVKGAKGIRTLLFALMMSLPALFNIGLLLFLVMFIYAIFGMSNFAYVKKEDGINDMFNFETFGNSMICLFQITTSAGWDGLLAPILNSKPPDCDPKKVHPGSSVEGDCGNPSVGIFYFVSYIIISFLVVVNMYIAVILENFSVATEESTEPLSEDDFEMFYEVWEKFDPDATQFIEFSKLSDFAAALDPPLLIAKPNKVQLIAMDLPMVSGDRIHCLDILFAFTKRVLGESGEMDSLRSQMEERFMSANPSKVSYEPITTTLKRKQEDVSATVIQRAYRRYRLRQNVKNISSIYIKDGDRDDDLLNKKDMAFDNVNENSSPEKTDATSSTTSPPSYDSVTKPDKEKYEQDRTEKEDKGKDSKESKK
hNaV1.7, sequence (Q07699 19-218 partner): as the sequence (Q07699 19-218 partner) above

SMILES	hNav1.3 VDB % Inhibition (hNaV1.3)	hNav1.7 VDB % Inhibition (hNaV1.7)
COc1ccccc1OCC(O)CN1CCN(CC(=O)Nc2c(C)cccc2C)CC1 (racemic) [Ranolazine, ±-N-(2,6-dimethylphenyl)-4-[2-hydroxy-3-(2-methoxyphenoxy)-propyl]-1-piperazineacetamide]	11.21%	17.23%
FC(F)(F)Oc1ccc(-c2ccc3nnc(C(F)(F)F)n3c2)cc1 [Compound A, 6-(4-(trifluoromethoxy)phenyl)-3-(trifluoromethyl)-[1,2,4]triazolo[4,3-α]pyridine]	65.42%	87.17%

— patent US20140221286A1, “SODIUM CHANNEL BLOCKERS REDUCE GLUCAGON SECRETION” (Gilead Sciences, Inc., priority 2011, published 2014)
